Laboratory results from ChEMBL document CHEMBL5291721, “A preclinical secondary pharmacology resource illuminates target-adverse drug reaction associations of marketed drugs” (Nat Commun, 2023).

What was measured:
Cannabinoid receptor 1 = Cannabinoid receptor 1 (Homo sapiens, UniProt P21554); type: functional, cell-based
[1] = biological target: T1, Alpha-2A adrenergic receptor (Homo sapiens, UniProt P08913); type: functional, cell-based
T1 sequence (P08913 whole entry): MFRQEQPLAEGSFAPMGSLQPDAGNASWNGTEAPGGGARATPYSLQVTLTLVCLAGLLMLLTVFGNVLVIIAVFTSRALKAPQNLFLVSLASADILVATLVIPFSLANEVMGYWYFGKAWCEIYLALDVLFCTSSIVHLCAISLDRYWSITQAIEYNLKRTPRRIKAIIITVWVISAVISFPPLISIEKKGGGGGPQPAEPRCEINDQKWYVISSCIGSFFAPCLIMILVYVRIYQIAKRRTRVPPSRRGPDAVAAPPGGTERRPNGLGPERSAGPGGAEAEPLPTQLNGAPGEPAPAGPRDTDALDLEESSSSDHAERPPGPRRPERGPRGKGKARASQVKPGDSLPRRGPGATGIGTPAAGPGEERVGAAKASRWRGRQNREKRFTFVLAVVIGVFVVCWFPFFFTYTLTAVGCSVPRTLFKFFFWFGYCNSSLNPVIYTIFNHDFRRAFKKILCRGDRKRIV

[2] = biological target: T2, 5-hydroxytryptamine receptor 3A (Homo sapiens, UniProt P46098); type: functional
T2 sequence (P46098 whole entry): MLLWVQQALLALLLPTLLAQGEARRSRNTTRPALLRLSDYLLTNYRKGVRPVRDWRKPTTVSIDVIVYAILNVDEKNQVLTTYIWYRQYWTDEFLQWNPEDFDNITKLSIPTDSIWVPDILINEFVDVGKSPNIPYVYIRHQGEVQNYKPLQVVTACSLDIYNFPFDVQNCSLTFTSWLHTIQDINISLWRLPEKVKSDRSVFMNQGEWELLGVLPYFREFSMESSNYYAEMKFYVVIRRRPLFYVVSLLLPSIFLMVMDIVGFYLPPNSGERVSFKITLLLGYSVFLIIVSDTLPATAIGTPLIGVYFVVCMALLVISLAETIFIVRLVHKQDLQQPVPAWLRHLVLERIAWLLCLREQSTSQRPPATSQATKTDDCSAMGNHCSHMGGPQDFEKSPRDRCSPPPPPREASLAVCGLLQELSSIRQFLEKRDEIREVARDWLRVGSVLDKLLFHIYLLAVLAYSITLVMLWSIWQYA

[3] = biological target: T3, 5-hydroxytryptamine receptor 1A (Homo sapiens, UniProt P08908); type: functional, cell-based
T3 sequence (P08908 whole entry): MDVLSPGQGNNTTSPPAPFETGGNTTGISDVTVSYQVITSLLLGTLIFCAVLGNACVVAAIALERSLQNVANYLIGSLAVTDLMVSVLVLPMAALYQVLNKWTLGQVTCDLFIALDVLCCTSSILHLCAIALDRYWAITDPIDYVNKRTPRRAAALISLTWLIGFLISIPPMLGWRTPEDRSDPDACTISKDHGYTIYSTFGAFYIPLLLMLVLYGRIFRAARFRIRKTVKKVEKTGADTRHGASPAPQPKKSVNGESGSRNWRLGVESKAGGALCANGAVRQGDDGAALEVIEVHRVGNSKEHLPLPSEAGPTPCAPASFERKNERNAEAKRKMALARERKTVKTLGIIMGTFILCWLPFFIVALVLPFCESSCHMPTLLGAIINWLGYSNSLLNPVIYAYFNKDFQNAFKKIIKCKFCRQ

[4] = biological target: cGMP-inhibited 3',5'-cyclic phosphodiesterase 3A (Homo sapiens, UniProt Q14432); type: functional
Chain of cGMP-inhibited 3',5'-cyclic phosphodiesterase 3A (Q14432 whole entry): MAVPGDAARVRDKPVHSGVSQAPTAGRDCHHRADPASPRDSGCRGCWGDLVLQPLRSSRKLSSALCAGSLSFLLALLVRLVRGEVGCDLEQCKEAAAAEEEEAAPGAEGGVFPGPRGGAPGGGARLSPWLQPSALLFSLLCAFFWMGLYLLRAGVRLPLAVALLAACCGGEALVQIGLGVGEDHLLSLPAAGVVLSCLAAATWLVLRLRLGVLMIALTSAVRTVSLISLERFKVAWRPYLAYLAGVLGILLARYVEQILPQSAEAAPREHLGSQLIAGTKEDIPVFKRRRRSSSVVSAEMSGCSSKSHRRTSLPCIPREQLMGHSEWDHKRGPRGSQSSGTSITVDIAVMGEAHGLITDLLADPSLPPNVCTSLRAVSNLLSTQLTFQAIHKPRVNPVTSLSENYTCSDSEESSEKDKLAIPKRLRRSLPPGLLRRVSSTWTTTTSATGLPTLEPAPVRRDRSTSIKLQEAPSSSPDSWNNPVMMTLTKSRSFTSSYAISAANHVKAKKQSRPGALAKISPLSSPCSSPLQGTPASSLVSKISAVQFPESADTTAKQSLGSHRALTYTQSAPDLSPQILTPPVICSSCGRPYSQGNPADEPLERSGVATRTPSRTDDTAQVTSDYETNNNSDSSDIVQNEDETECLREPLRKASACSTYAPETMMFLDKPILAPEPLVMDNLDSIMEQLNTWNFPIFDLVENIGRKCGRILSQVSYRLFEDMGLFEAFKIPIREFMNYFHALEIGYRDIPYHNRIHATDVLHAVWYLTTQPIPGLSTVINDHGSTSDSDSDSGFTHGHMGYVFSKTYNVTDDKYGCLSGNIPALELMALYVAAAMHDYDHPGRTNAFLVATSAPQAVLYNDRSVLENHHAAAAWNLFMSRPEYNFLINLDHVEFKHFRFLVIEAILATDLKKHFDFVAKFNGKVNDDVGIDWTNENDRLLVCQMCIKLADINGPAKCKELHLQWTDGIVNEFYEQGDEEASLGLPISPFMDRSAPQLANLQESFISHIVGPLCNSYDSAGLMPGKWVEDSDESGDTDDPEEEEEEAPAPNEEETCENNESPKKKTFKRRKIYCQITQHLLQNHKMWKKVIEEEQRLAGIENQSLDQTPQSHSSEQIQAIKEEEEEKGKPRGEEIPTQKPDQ

[5] = biological target: T4, Muscarinic acetylcholine receptor M2 (Homo sapiens, UniProt P08172); type: functional, cell-based
T4 sequence (P08172 whole entry): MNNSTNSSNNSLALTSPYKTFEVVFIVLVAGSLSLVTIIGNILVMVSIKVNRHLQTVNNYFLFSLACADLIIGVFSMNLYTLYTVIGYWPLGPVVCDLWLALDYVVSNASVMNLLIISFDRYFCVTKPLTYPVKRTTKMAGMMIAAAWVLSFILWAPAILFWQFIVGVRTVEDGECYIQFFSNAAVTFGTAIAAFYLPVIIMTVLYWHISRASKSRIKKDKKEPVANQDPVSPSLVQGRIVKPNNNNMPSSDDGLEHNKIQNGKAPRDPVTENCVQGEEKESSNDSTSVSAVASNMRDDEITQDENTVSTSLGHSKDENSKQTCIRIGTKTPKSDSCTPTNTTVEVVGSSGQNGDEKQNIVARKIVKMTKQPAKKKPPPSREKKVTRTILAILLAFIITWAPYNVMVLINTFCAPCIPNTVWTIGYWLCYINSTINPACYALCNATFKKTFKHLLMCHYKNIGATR

Histamine H3 receptor = Histamine H3 receptor (Homo sapiens, UniProt Q9Y5N1)
Chain of Histamine H3 receptor (Q9Y5N1 whole entry): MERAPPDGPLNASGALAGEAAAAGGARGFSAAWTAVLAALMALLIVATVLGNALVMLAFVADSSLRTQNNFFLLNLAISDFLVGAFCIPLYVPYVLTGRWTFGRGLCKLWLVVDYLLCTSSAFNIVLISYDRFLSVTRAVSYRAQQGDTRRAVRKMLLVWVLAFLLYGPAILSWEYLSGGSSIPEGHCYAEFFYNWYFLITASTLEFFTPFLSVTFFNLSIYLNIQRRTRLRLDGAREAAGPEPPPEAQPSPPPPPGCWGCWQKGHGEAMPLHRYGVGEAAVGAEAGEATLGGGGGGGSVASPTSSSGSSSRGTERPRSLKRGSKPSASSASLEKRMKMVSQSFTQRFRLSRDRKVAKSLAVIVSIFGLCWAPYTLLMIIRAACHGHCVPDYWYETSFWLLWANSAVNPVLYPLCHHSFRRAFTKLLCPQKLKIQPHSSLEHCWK

[6] = biological target: T5, Gastrin/cholecystokinin type B receptor (Homo sapiens, UniProt P32239)
T5 sequence (P32239 whole entry): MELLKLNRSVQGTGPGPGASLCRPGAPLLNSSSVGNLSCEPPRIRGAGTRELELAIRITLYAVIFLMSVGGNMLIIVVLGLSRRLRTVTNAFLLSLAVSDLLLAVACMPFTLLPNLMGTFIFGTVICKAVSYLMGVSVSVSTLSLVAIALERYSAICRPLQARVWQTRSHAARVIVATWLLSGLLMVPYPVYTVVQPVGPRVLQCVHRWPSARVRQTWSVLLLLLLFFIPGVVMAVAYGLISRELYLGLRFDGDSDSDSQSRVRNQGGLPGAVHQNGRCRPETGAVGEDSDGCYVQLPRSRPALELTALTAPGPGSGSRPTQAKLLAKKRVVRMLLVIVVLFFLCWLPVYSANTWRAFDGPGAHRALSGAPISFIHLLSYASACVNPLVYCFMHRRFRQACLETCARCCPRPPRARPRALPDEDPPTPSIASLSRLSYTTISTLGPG
Also: assay procedure not described here.

Chain of Cannabinoid receptor 1 (P21554 whole entry): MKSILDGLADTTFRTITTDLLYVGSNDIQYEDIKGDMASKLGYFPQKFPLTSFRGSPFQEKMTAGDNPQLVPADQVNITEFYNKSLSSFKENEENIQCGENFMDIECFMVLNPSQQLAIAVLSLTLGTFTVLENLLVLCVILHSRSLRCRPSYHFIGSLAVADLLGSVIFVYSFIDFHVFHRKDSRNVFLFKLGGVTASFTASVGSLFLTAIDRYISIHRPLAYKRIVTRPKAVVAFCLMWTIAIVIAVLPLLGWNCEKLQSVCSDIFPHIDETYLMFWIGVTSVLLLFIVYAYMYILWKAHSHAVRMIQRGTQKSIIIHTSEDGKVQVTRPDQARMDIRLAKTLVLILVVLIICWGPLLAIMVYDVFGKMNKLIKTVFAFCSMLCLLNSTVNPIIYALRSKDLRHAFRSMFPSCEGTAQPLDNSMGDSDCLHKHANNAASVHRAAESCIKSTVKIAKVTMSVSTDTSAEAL

SMILES | AC50 (Cannabinoid receptor 1) [µM] | AC50 [1] [µM] | AC50 [2] [µM] | AC50 [3] [µM] | AC50 [4] [µM] | AC50 [5] [µM] | AC50 (Histamine H3 receptor) [µM] | AC50 [6] [µM]
CN(CC1(C)CCCO1)S(=O)(=O)c1ccc(Cl)c(S(N)(=O)=O)c1 (configuration not stated) [MEFRUSIDE] | > 30 | > 30 | > 30 | > 30 | > 30 | – | – | –
CC(=O)O[C@]1(C(C)=O)CC[C@H]2[C@@H]3C=C(C)C4=CC(=O)CC[C@@H]4[C@H]3CC[C@@]21C [NOMEGESTROL ACETATE] | > 30 | > 30 | > 30 | – | > 30 | > 30 | – | –
O=C1C(CC[S+]([O-])c2ccccc2)C(=O)N(c2ccccc2)N1c1ccccc1 (configuration not stated) [SULFINPYRAZONE] | > 30 | > 30 | > 30 | > 10 | > 30 | > 10 | – | –
CC(N)C12CC3CC(CC(C3)C1)C2 (configuration not stated) [RIMANTADINE] | – | > 10 | > 30 | > 10 | > 30 | > 10 | – | –
C[C@H](CCC(=O)O)[C@H]1CC[C@H]2[C@@H]3[C@@H](O)C[C@@H]4C[C@H](O)CC[C@]4(C)[C@H]3CC[C@]12C [URSODIOL] | > 30 | > 30 | > 30 | > 30 | > 30 | > 30 | > 30 | –
CN1C[C@H](C(=O)N[C@]2(C)O[C@@]3(O)[C@@H]4CCCN4C(=O)[C@H](Cc4ccccc4)N3C2=O)C=C2c3cccc4[nH]cc(c34)C[C@H]21 [ERGOTAMINE] | > 30 | > 10 | > 30 | – | > 30 | > 30 | > 30 | –
C#C[C@]1(O)CC[C@H]2[C@@H]3CCC4=CC(=O)CC[C@@H]4[C@H]3C(=C)C[C@@]21CC [ETONOGESTREL] | > 30 | > 30 | > 30 | > 30 | > 30 | – | – | –
CN(C)CCc1c[nH]c2ccc(Cn3cncn3)cc12 [RIZATRIPTAN] | > 30 | > 30 | > 30 | – | > 30 | > 30 | > 10 | > 30
C[C@]12C=CC(=O)N[C@@H]1CC[C@@H]1[C@@H]2CC[C@]2(C)[C@@H](C(=O)Nc3cc(C(F)(F)F)ccc3C(F)(F)F)CC[C@@H]12 [DUTASTERIDE] | > 30 | > 10 | > 30 | > 10 | > 30 | > 10 | – | –
CCCN(CCC)C(=O)Cc1c(-c2ccc(Cl)cc2)nc2ccc(Cl)cn12 [ALPIDEM] | – | > 30 | > 30 | – | > 30 | > 30 | > 30 | > 30
CC(S)C(=O)NCC(=O)O (configuration not stated) [TIOPRONIN] | > 30 | > 30 | > 30 | > 30 | > 30 | > 30 | > 30 | –
CCN1CCN(Cc2ccc(Nc3ncc(F)c(-c4cc(F)c5nc(C)n(C(C)C)c5c4)n3)nc2)CC1 [ABEMACICLIB] | > 30 | > 30 | > 30 | > 30 | > 30 | > 30 | 0.31 | –
CN1C(C(=O)Nc2ccccn2)=C(O)c2ccccc2S1(=O)=O [PIROXICAM] | – | > 10 | > 30 | > 10 | > 30 | > 10 | – | –
COc1cc2nccc(Oc3ccc(NC(=O)C4(C(=O)Nc5ccc(F)cc5)CC4)cc3)c2cc1OC [CABOZANTINIB] | > 30 | > 30 | > 30 | > 30 | > 30 | > 30 | > 30 | –
CCCC(CCC)C(=O)O [VALPROIC ACID] | – | > 10 | > 30 | > 10 | > 30 | > 10 | > 10 | > 30
CC(C(=O)O)c1ccc2c(c1)[nH]c1ccc(Cl)cc12 (configuration not stated) [CARPROFEN] | – | > 10 | > 30 | > 10 | > 30 | > 10 | > 30 | > 30
COc1ccc(CC2c3cc(OC)c(OC)cc3CC[N+]2(C)CCC(=O)OCCCCCOC(=O)CC[N+]2(C)CCc3cc(OC)c(OC)cc3C2Cc2ccc(OC)c(OC)c2)cc1OC (configuration not stated) | – | > 30 | > 30 | – | > 30 | > 30 | > 30 | > 30
COc1ccccc1OCCNCC(O)COc1cccc2[nH]c3ccccc3c12 (configuration not stated) [CARVEDILOL] | > 30 | > 30 | > 10 | – | > 30 | > 10 | > 30 | > 30
CC(C)(C)NCC(O)c1cc(O)cc(O)c1 (configuration not stated) [TERBUTALINE] | – | – | – | – | – | – | > 30 | > 30
C[C@@H](Oc1cc(-c2cnn(C3CCNCC3)c2)cnc1N)c1c(Cl)ccc(F)c1Cl [CRIZOTINIB] | > 30 | > 30 | > 30 | > 10 | > 30 | > 10 | – | > 30
O=C1CN(/N=C/c2ccc(-c3ccc([N+](=O)[O-])cc3)o2)C(O)=N1 [DANTROLENE] | – | > 10 | > 30 | > 10 | > 30 | > 10 | – | –
C=C[C@H]1C[N@@]2CC[C@H]1C[C@@H]2[C@@H](O)c1ccnc2ccc(OC)cc12 [QUINIDINE] | > 30 | > 10 | > 30 | – | > 30 | > 10 | > 10 | > 30
CCN(CC)CCNC(=O)c1c(C)[nH]c(/C=C2\C(=O)Nc3ccc(F)cc32)c1C [SUNITINIB] | > 30 | > 30 | – | – | 18 | > 10 | 0.88 | > 10
O=C1CCc2cc(OCCCCc3nnnn3C3CCCCC3)ccc2N1 [CILOSTAZOL] | > 30 | > 30 | > 30 | – | 0.424 | > 30 | > 30 | > 30
C[C@@H](NCCCc1cccc(C(F)(F)F)c1)c1cccc2ccccc12 | > 30 | > 30 | > 30 | – | > 30 | > 30 | > 30 | > 30
